The source made the active and inactive calls. The rule behind the calls is not given here.
Assays:
[1] = molecular target: T1, MAP kinase-interacting serine/threonine-protein kinase 2 (Homo sapiens, UniProt Q9HBH9); test: Inhibition of N-terminal GST-tagged recombinant human full length MNK2 expressed in baculovirus expression system at 10 uM incubated for 1 hr by Kinase Tracer 236 based LanthaScreen Eu kinase binding assay relative to control
Target sequence in this assay (Q9HBH9 whole entry, looked up): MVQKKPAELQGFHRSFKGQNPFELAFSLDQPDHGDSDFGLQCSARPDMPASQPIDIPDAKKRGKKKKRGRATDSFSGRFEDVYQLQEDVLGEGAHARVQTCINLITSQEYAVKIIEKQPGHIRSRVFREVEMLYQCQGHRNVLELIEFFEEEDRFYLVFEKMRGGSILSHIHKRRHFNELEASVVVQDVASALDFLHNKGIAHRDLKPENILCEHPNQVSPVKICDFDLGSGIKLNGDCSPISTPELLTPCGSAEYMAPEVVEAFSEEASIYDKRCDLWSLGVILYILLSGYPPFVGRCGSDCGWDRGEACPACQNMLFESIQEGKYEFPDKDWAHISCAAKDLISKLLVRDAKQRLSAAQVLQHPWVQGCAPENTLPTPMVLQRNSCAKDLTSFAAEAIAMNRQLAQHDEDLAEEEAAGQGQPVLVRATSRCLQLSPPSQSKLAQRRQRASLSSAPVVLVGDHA

[2] = molecular target: T1, MAP kinase-interacting serine/threonine-protein kinase 2; test: Inhibition of N-terminal GST-tagged recombinant human full length MNK2 expressed in baculovirus expression system incubated for 1 hr by Kinase Tracer 236 based LanthaScreen Eu kinase binding assay relative to control
Target sequence in this assay (Q9HBH9 whole entry): as the sequence (Q9HBH9 whole entry, looked up) above

MV4-11 [3] = test: Cytotoxicity against human MV4-11 cells assessed as reduction in cell viability after 72 hrs by MTT assay; type: functional, cell-based; conditions: MV4-11, 72 h
MOLM-13 [4] = test: Cytotoxicity against human MOLM-13 cells assessed as reduction in cell viability after 72 hrs by MTT assay; type: functional, cell-based; conditions: MOLM-13, 72 h
[5] = molecular target: T2, MAP kinase-interacting serine/threonine-protein kinase 1 (Homo sapiens, UniProt Q9BUB5); test: Inhibition of GST-tagged recombinant human full length MNK1 expressed in insect cells at 10 uM relative to control
Target sequence in this assay (Q9BUB5 whole entry, looked up): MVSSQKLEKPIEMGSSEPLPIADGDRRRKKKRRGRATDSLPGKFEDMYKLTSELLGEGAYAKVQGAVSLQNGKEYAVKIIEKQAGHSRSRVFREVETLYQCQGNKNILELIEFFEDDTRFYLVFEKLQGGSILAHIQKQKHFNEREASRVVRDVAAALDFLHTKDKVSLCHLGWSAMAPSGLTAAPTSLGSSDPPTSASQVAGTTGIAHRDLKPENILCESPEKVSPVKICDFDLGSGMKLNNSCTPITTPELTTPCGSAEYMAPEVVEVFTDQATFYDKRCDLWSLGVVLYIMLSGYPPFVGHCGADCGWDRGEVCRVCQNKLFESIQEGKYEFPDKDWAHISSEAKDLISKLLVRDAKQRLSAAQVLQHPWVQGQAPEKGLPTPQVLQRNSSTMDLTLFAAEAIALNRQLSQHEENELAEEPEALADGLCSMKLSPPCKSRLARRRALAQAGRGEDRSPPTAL

MOLM-13 [6] = test: Induction of apoptosis in human MOLM-13 cells assessed as increase in cleaved caspace-3 level after 72 hrs by Western blot analysis; type: functional, cell-based; conditions: dose microM 1-30, time 72.0 hrs
[7] = molecular target: T3, MAP kinase-interacting serine/threonine-protein kinase 1/2 (Homo sapiens) (UniProt Q9HBH9+Q9BUB5); test: Inhibition of MNK1/MNK2 in human MOLM-13 cells assessed as reduction in eIF4E phosphorylation reduction in eIF4E phosphorylation after 24 to 48 hrs by Western blot analysis; type: cell-based; conditions: dose microM 1-30, time hrs 24-48
[8] = molecular target: T3, MAP kinase-interacting serine/threonine-protein kinase 1/2 (Homo sapiens); test: Inhibition of MNK1/MNK2 in human MV4-11 cells assessed as reduction in eIF4E phosphorylation reduction in eIF4E phosphorylation after 24 to 48 hrs by Western blot analysis; type: cell-based; conditions: dose microM 1-30, time hrs 24-48
MV4-11 [9] = test: Induction of cell death in human MV4-11 cells assessed as increase in accumulation at sub-G1 phase after 72 hrs by propidium iodide staining based flow cytometric analysis; type: functional; conditions: dose microM 1-30, time 72.0 hrs
[10] = molecular target: T2, MAP kinase-interacting serine/threonine-protein kinase 1; test: Inhibition of GST-tagged recombinant human full length MNK1 expressed in insect cells
Target sequence in this assay (Q9BUB5 whole entry): as the sequence (Q9BUB5 whole entry, looked up) above

MOLM-13 [11] = test: Induction of apoptosis in human MOLM-13 cells assessed as increase in cleaved PARP level after 72 hrs by Western blot analysis; type: functional, cell-based; conditions: dose microM 1-30, time 72.0 hrs
MV4-11 [12] = test: Induction of apoptosis in human MV4-11 cells assessed as increase in cleaved PARP level after 72 hrs by Western blot analysis; type: functional, cell-based; conditions: dose microM 1-30, time 72.0 hrs
MV4-11 [13] = test: Induction of apoptosis in human MV4-11 cells assessed as increase in cleaved caspace-3 level after 72 hrs by Western blot analysis; type: functional, cell-based; conditions: dose microM 1-30, time 72.0 hrs
MV4-11 [14] = test: Induction of cell cycle arrest in human MV4-11 cells assessed as increase in accumulation at sub-G1 phase at 3 to 30 uM after 72 hrs by propidium iodide staining based flow cytometric analysis; type: functional; conditions: dose microM 3-30, time 72.0 hrs
MOLM-13 [15] = test: Induction of cell death in human MOLM-13 cells assessed as increase in accumulation at sub-G1 phase after 72 hrs by propidium iodide staining based flow cytometric analysis; type: functional; conditions: dose microM 1-30, time 72.0 hrs
MOLM-13 [16] = test: Induction of cell cycle arrest in human MOLM-13 cells assessed as increase in accumulation at sub-G1 phase at 3 to 30 uM after 72 hrs by propidium iodide staining based flow cytometric analysis; type: functional; conditions: dose microM 3-30, time 72.0 hrs
[17] = molecular target: T3, MAP kinase-interacting serine/threonine-protein kinase 1/2 (Homo sapiens); test: Inhibition of MNK1/MNK2 in human MV4-11 cells assessed as reduction in eIF4E phosphorylation reduction in eIF4E phosphorylation at 30 uM after 24 to 48 hrs by Western blot analysis; type: cell-based; conditions: time hrs 24-48
[18] = molecular target: T3, MAP kinase-interacting serine/threonine-protein kinase 1/2 (Homo sapiens); test: Inhibition of MNK1/MNK2 in human MOLM-13 cells assessed as reduction in eIF4E phosphorylation reduction in eIF4E phosphorylation at 30 uM after 24 to 48 hrs by Western blot analysis; type: cell-based; conditions: time hrs 24-48
MOLM-13 [19] = test: Induction of cell cycle arrest in human MOLM-13 cells assessed as increase in accumulation at sub-G1 phase at 30 uM after 72 hrs by propidium iodide staining based flow cytometric analysis relative to control; type: functional
[20] = molecular target: T3, MAP kinase-interacting serine/threonine-protein kinase 1/2 (Homo sapiens); test: Inhibition of MNK1/MNK2 in human MV4-11 cells assessed as reduction in eIF4E phosphorylation reduction in eIF4E phosphorylation at 10 uM after 24 to 48 hrs by Western blot analysis; type: cell-based; conditions: time hrs 24-48
MV4-11 [21] = test: Induction of cell cycle arrest in human MV4-11 cells assessed as increase in accumulation at sub-G1 phase at 1 to 30 uM after 72 hrs by propidium iodide staining based flow cytometric analysis; type: functional; conditions: dose microM 1-30, time 72.0 hrs
MV4-11 [22] = test: Induction of cell cycle arrest in human MV4-11 cells assessed as increase in accumulation at sub-G1 phase at 30 uM after 72 hrs by propidium iodide staining based flow cytometric analysis relative to control; type: functional
MOLM-13 [23] = test: Induction of cell cycle arrest in human MOLM-13 cells assessed as increase in accumulation at sub-G1 phase at 1 to 30 uM after 72 hrs by propidium iodide staining based flow cytometric analysis; type: functional; conditions: dose microM 1-30, time 72.0 hrs
[24] = molecular target: T3, MAP kinase-interacting serine/threonine-protein kinase 1/2 (Homo sapiens); test: Inhibition of MNK1/MNK2 in human MOLM-13 cells assessed as reduction in eIF4E phosphorylation reduction in eIF4E phosphorylation at 10 uM after 24 to 48 hrs by Western blot analysis; type: cell-based; conditions: time hrs 24-48

`COc1cc(O)c(C(=O)/C=C/c2ccc(C(=O)O)cc2)c(OC)c1` gave an inhibition [1] of over 70% and an IC50 [2] of 3.7 µM.
Compound `O=c1c(O)c(-c2ccncc2)oc2ccc(Cl)cc12` has an inhibition [1] of over 70% and an IC50 [2] of 6.49 µM.
In the case of `COc1ccc(C(=O)/C=C/c2ccc(O)c(Br)c2)cc1`, the inhibition [1] is reported as over 70% and the IC50 [2] is reported as 4.67 µM.
Compound `COc1cc2c(c(OC)c1CC=C(C)C)C(=O)CC(c1ccc(OC)c(OC)c1C/C=C(\C)CCC=C(C)C)O2` (centres undefined) has an inhibition [1] of over 70% and an IC50 [2] of 8.26 µM.
`COc1ccc(-c2oc3cc(OC)c(OC)c(O)c3c(=O)c2O)cc1O` was tested, and the inhibition [1] was over 70% and the IC50 [2] was 1.7 µM.
`COc1cc(O)c(C(=O)/C=C/c2ccccc2)c(OC)c1` showed an inhibition [1] of over 50%.
Compound `COc1ccc(-c2cc(=O)c3c(O)cc(O)cc3o2)cc1` has an inhibition [1] of over 50%.
Compound `COc1ccc(-c2cc(=O)c3ccc(O)cc3o2)cc1OC` has an inhibition [1] of over 50%.
Work on `O=C(/C=C/c1cccc(O)c1)c1ccccc1O` yielded an inhibition [1] of over 50%.
For `O=c1cc(-c2ccccc2)oc2cc(O)ccc12`, the inhibition [1] was over 50%.
`O=c1cc(-c2ccc(O)cc2)oc2cc(O)cc(O)c12` [APIGENIN] showed an inhibition [1] of over 70% and an IC50 [2] of 0.308 µM.
`COc1cc(O)c2c(=O)cc(-c3ccc(O)cc3)oc2c1` [GENKWANIN] showed an IC50 (MV4-11 [3]) of over 10 µM, an inhibition [1] of over 70% and an IC50 (MOLM-13 [4]) of over 10 µM. It also gave an IC50 [2] of 0.979 µM.
`COc1c(O)cc2oc(-c3ccc(O)cc3)cc(=O)c2c1O` [HISPIDULIN] was tested, and the inhibition [5] was over 70%, the IC50 (MV4-11 [3]) was 8.2 µM and the Activity (MOLM-13 [6]) was “Dose-dependent effect”. For the same compound, the inhibition [7] was “Dose-dependent effect”, the inhibition [1] was 93% and the inhibition [8] was “Dose-dependent effect”. The Activity (MV4-11 [9]) was “Active”, the IC50 [10] was 1.2 µM and the Activity (MOLM-13 [11]) was “Dose-dependent effect”. The Activity (MV4-11 [12]) was “Dose-dependent effect”, the Activity (MV4-11 [13]) was “Dose-dependent effect” and the Activity (MV4-11 [14]) was “Active”. The Activity (MOLM-13 [15]) was “Active”, the IC50 (MOLM-13 [4]) was 6.4 µM and the Activity (MOLM-13 [16]) was “Active”. It also gave an IC50 [2] of 0.252 µM, an inhibition [17] of 100% and an inhibition [18] of 100%.
Compound `O=c1cc(-c2ccc(O)c(O)c2)oc2cc(O)cc(O)c12` [LUTEOLIN] has an Activity (MOLM-13 [19]) of over 80%, an inhibition [20] of 100% and an inhibition [5] of over 70%. For the same compound, the IC50 (MV4-11 [3]) was 3.1 µM, the Activity (MOLM-13 [6]) was “Dose-dependent effect” and the inhibition [7] was “Dose-dependent effect”. The inhibition [1] was over 70%, the inhibition [8] was “Dose-dependent effect” and the Activity (MV4-11 [9]) was “Active”. The IC50 [10] was 0.179 µM, the Activity (MOLM-13 [11]) was “Dose-dependent effect” and the Activity (MV4-11 [12]) was “Dose-dependent effect”. The Activity (MV4-11 [13]) was “Dose-dependent effect”, the Activity (MV4-11 [21]) was “Active” and the Activity (MOLM-13 [15]) was “Active”. For the same compound, the IC50 (MOLM-13 [4]) was 4.5 µM, the Activity (MV4-11 [22]) was over 80% and the IC50 [2] was 0.579 µM. For the same compound, the Activity (MOLM-13 [23]) was “Active” and the inhibition [24] was 100%.
